# Tests used:
# thrombocytopenia = assay: inhibition of variously induced thrombocytopenia; conditions: in vivo
# thromboxane synthetase = molecular target: T1, thromboxane synthetase (Homo sapiens, UniProt P24557); assay: in vitro inhibition of thromboxane synthetase (14C-arachidonic acid, TxB2/PGF2α+β ratio); type: biochemical; conditions: 30 minutes incubation
# T1 construct: crude microsomal preparation of thromboxane synthetase from lysed human platelets; from tissue; host or cells: human platelets (lysed, crude microsomal preparation)
# T1 sequence (P24557 1-533): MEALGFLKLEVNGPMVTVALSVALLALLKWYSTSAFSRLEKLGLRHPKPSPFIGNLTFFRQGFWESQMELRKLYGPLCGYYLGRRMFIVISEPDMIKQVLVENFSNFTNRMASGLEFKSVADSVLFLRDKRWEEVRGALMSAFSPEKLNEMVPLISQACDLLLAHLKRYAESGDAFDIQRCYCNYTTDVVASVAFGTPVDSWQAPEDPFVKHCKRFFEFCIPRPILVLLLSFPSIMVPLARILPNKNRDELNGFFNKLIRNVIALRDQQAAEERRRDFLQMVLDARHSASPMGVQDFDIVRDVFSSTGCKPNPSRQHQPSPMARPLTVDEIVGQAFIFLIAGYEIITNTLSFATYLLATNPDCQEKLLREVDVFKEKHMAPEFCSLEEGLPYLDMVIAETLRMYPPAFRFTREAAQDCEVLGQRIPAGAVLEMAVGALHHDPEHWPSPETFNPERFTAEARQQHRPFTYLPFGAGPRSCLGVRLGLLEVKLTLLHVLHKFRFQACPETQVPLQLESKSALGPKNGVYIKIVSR
# Description: Res. Comm. 74, 1432 (1977); the testing procedure is as follows:
# ^14 C-Arachiodonic acid is incubated with an exzyme consisting of solubilized and partially purified prostaglandin cyclo-oxygenase from sheep seminal vesicles and a crude microsomal preparation of thromboxane synthetase from lysed human platelets. The test compound (dissolved in buffer, or if necessary, in a small amount of ethanol) is added to the incubation medium. At the end of the incubation period (30 minutes), Prostaglandin E2 (PGE2) is reduced to a mixture of Prostaglandin F2 α and F2 β (PGF2α+β) by addition of sodium borohydride. The radioactive products and excess substrate are extracted into ethyl acetate; the extract is evaporated to dryness; the residue is dissolved in acetone, spotted on thin-layer plates and chromatographed in the solvent system toluene: acetone: glacial acetic acid (100 volumes: 100 volumes: 3 volumes). The radioactive zones are located; those corresponding to Thromboxane B2 (TxB2) and PGF2 α+β are transferred to liquid scintillation vials and counted. The ratio of counts for TxB2 /PGF2 α+β is calculated for each concentration of test compound and IC50 values are determined graphically as the concentration of test compound at which the ratio of T×B2 /[…] is reduced to 50% of the control value.
# [1] = molecular target: T2, prostacyclin (PGI2) synthetase (Bos taurus, UniProt Q29626); assay: in vitro effect on prostacyclin (PGI2) synthetase (6-keto-PGF1α/PGE2 ratio); type: biochemical, bovine; conditions: pH 7.5, 30 minutes at 37° C., read-out: IC50 for inhibition of prostacyclin synthetase
# T2 construct: crude PGI2 synthetase in the form of a microsomal fraction of bovine aorta; from tissue; host or cells: bovine aorta (microsomal fraction)
# T2 sequence (Q29626 1-500): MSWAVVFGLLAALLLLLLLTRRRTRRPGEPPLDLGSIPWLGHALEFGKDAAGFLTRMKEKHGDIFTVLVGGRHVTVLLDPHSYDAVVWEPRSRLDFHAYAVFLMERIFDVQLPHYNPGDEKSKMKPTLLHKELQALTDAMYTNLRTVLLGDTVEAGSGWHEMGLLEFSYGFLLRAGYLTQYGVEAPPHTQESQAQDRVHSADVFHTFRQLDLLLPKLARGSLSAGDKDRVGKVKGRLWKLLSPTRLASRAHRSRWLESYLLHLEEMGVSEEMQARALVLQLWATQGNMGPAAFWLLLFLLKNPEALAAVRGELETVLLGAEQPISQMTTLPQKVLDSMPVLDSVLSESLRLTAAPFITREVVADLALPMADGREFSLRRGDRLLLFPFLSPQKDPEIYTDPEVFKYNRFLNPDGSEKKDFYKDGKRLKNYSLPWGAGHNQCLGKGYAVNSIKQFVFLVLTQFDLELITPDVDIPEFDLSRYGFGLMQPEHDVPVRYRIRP
# Description: The in-vitro effect on prostacyclin (PGI2) synthetase is measured analogous to the method of Sun et al., Prostaglandins 14, 1055 (1977);
# The testing procedure is as follows:
# ^14 C-Arachiodonic acid is incubated with an enzyme mixture consisting of solubilized and partially purified prostaglandin cyclo-oxygenase from sheep seminal vesicles and crude PGI2 synthetase in the form of a microsomal fraction of bovine aorta.
# Test compound (dissolved in buffer, or if necessary, in a small amount of ethanol) is placed in the incubation medium. The reaction mixture is incubated in 100 mM Tris HCl (pH 7.5) for 30 minutes at 37° C., acidified to pH 3 and extracted into ethyl acetate. The extract is evaporated to dryness; the residue is dissolved in acetone, spotted on thin-layer plates and chromatographed in a solvent system described by Sun et al.. The radioactive zones are located with a scanner; those corresponding to 6-keto-PGF1 α(a stable end product of prostacyclin biotransformation) and PGE2 are transferred to liquid scintillation vials and counted. The ratio of counts for 6-keto-PGF1 α/PGE2 is calculated for each concentration of test compound used. IC50 values for inhibition are determined graphically as the concentration of test compound at which the ratio of 6-keto-PGF1 α/PGE2 is reduced to 50% of the control value.
# platelet aggregation = assay: inhibition of variously induced platelet aggregation; type: cell-based
# [2] = molecular target: T3, prostaglandin cyclooxygenase (Ovis aries, UniProt P05979); assay: in vitro effect on prostaglandin cyclooxygenase (14C-arachidonic acid to PGE2); type: biochemical, sheep; conditions: read-out: IC50 for inhibition of cyclooxygenase
# T3 construct: Lyophilized sheep seminal vesicle microsomes are utilized as the prostaglandin-synthesizing enzyme preparation; from tissue; host or cells: sheep seminal vesicle microsomes (lyophilized)
# T3 sequence (P05979 25-600): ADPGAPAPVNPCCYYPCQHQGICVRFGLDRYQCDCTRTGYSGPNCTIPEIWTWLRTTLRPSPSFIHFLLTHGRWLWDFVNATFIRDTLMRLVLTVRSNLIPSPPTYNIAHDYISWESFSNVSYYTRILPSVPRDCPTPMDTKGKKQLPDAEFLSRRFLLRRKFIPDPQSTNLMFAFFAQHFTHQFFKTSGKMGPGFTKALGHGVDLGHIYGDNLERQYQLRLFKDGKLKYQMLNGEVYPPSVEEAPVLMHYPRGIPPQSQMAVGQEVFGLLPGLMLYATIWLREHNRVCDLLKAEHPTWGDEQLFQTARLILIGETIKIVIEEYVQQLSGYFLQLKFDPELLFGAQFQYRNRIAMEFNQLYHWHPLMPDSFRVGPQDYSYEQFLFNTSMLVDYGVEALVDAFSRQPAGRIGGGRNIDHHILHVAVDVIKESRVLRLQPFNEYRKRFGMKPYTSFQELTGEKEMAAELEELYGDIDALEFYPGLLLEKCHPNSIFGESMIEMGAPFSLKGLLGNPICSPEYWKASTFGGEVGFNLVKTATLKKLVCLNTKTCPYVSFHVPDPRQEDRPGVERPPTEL
# Description: The in-vitro effect on prostaglandin cyclooxygenase is measured by a modification of the method of Takeguchi et al. described in Biochemistry 10, 2372 (1971); the testing procedure is as follows: Lyophilized sheep seminal vesicle microsomes are utilized as the prostaglandin-synthesizing enzyme preparation. The conversion of ^14 C-arachidonic acid to PGE2 is measured. Test compounds (dissolved in buffer, or if necessary, in a small amount of ethanol) are added to the incubation mixture. The prostaglandins are extracted and separated by thin-layer chromatography; the plates are scanned, the radioactive zones corresponding to PGE2 are transferred to liquid scintillation vials and counted for radioactivity. IC50 values for inhibition are determined graphically as the concentration of test compound causing a 50% reduction in the amount of PGE2 synthesized.
# bleeding time = assay: prolongation of bleeding time in the rat; type: in vivo; conditions: oral, about 10 mg/kg
# Source text: Experimentally, prolongation of bleeding time in the rat is indicative of a beneficial antithrombotic effect.
# thromboxane B2 = assay: reduction of plasma levels of thromboxane in vivo in rats (ionophore A23187, radioimmunoassay of thromboxane B2); conditions: rat, oral dose 0.10 mg/kg
# Description: (§1) The inhibition of the synthesis and the reduction of plasma levels of thromboxane is determined in vivo on administration to rats in the following manner (as adapted from the procedures described by Tai et al. in Anal. Biochem. 87:343, 1978 and by Salmon in Prostaglandins 15:383, 1978):
# (§2) Rats are dosed with vehicle or test drug and injected intravenously with ionophore A23187 (0.5 mg/kg) two hours later. Blood is collected for analysis 2 minutes after the inonophore injection. A single aliquot of each plasma sample is assayed for thromboxane B2 and another aliquot for 6-keto-PGF1 α, the stable metabolites of thromboxane A2 and prostacyclin (PGI2) respectively, by radioimmunoassay.
# prostacyclin = assay: plasma level of prostacyclin in vivo in rats (ionophore A23187, radioimmunoassay of 6-keto-PGF1α); conditions: rat, oral dose 0.10 mg/kg
# Description: as §1, §2
smiles,measurement,setting,value
Cn1c(-c2cccnc2)c(CCCCCC(=O)O)c2ccccc21 [3-(5-carboxypentyl)-1-methyl-2-(3-pyridyl)indole],inhibition of variously induced thrombocytopenia,thrombocytopenia,inhibits
same,IC50,thromboxane synthetase,2.2 nM
same,IC50,[1],~100000 nM
same,inhibition of variously induced platelet aggregation,platelet aggregation,inhibits
same,IC50,[2],~100000 nM
O=C(O)CCCCCc1c(-c2cccnc2)[nH]c2ccccc12 [3-(5-carboxypentyl)-2-(3-pyridyl)indole],prolongation of bleeding time,bleeding time,prolongs bleeding time
same,IC50,thromboxane synthetase,~1.7 nM
Cn1c(-c2cccnc2)c(CCCCCC(=O)O)c2cc(Cl)ccc21 [3-(5-carboxypentyl)-5-chloro-1-methyl-2-(3-pyridyl)indole],decrease of plasma concentration of thromboxane B2,thromboxane B2,over 50%
same,increase in the plasma level of prostacyclin,prostacyclin,approximately 8 fold
O=C(O)CCCCCc1c(-c2cccnc2)[nH]c2ccc(Cl)cc12 [3-(5-carboxypentyl)-5-chloro-2-(3-pyridyl)indole],IC50,thromboxane synthetase,~2 nM

# Source: patent US4511573A, “3-Substituted-2-(heteroaryl) indoles” (Ciba-Geigy Corporation, priority 1983, dated 1985)
